Measurements as given in US10030020B2, “Spirocycle compounds and methods of making and using same” (Abide Therapeutics, Inc., priority 2016, dated 2018).
Read-outs that look alike come from different tables or passages of the source.

Assays:
MAGL [1] = target: MAGL (Homo sapiens (Human), UniProt Q99685); test: In vitro competitive activity-based protein profiling (human prefrontal cortex or cell membrane fractions; hMAGL expressed in HEK293T cells); format: biochemical
Procedure: In Vitro Competitive Activity-Based Protein Profiling (Human).
Proteomes (human prefrontal cortex or cell membrane fractions) (50 μL, 1.0-2.0 mg/mL total protein concentration) were preincubated with varying concentrations of inhibitors at 37° C. After 30 min, FP—Rh or JW912 (1.0 μL, 50 μM in DMSO) was added and the mixture was incubated for another 30 min at room temperature. Reactions were quenched with SDS loading buffer (15 μL-4×) and run on SDS-PAGE.
Recombinant Expression of Human MAGL in HEK293T Cells.
Cell lysates were diluted with mock proteomes for use in competitive ABPP experiments.

FAAH [2] = target: T1, FAAH (Mus musculus (Mouse), UniProt O08914); test: In vitro competitive activity-based protein profiling (mouse brain membrane fraction or cell lysates), FAAH band; format: biochemical; conditions: for inhibition at 1 µM: read-out: FAAH % Inh 1 μM (mouse); for IC50: competitive ABPP
Outline: (§1)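 Competitive ABPP: proteome 1.0 mg/mL protein + inhibitor, 30 min, 37° C; FP-Rh probe (stock 50 μM in DMSO) added, 30 min, 37° C; SDS quench, SDS-PAGE, fluorescent band intensity read.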

ABHD6 [3] = target: T2, ABHD6 (Mus musculus (Mouse), UniProt Q8R2Y0); test: In vitro competitive activity-based protein profiling (mouse brain membrane fraction or cell lysates), ABHD6 band; format: biochemical; conditions: for inhibition at 1 µM: read-out: ABHD6 % Inh 1 μM (mouse); for IC50: competitive ABPP
Outline: as §1

MAGL [4] = target: T3, MAGL (Mus musculus (Mouse), UniProt O35678); test: In vitro competitive activity-based protein profiling (mouse brain membrane fraction or cell lysates), MAGL band; format: biochemical; conditions: for inhibition at 1 µM: read-out: MAGL % Inh 1 μM (mouse); for IC50: competitive ABPP
Procedure: In Vitro Competitive Activity-Based Protein Profiling.
Proteomes (mouse brain membrane fraction or cell lysates) (50 μL, 1.0 mg/mL total protein concentration) were preincubated with varying concentrations of inhibitors at 37° C. After 30 min, FP—Rh (1.0 μL, 50 μM in DMSO) was added and the mixture was incubated for another 30 min at 37° C. Reactions were quenched with SDS loading buffer (50 μL-4×) and run on SDS-PAGE.

MAGL [5] = target: T3, MAGL; test: Mouse brain proteomes from inhibitor treated mice (oral gavage, sacrificed 4 h after administration, ABPP analysis); format: in vivo, mouse (C57Bl/6J); conditions: 5 mg/kg oral gavage
Outline: (§2)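 Compounds were given by oral gavage to wild-type C57Bl/6J mice in a vehicle such as PEG400/Ethanol/PBS (7/2/1). Animals were sacrificed 4 h after dosing, and brain proteomes were prepared and analyzed by established ABPP methods. Values are % inhibition at 5 mg/kg.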

FAAH [6] = target: T1, FAAH; test: Mouse brain proteomes from inhibitor treated mice (oral gavage, sacrificed 4 h after administration, ABPP analysis), FAAH; format: in vivo, mouse (C57Bl/6J); conditions: 5 mg/kg oral gavage
Outline: as §2

ABHD6 [7] = target: T2, ABHD6; test: Mouse brain proteomes from inhibitor treated mice (oral gavage, sacrificed 4 h after administration, ABPP analysis), ABHD6; format: in vivo, mouse (C57Bl/6J); conditions: 5 mg/kg oral gavage
Outline: as §2

[8] = human proteome, competitive ABPP

Sequence of MAGL (Homo sapiens (Human), UniProt Q99685) (Q99685 whole entry): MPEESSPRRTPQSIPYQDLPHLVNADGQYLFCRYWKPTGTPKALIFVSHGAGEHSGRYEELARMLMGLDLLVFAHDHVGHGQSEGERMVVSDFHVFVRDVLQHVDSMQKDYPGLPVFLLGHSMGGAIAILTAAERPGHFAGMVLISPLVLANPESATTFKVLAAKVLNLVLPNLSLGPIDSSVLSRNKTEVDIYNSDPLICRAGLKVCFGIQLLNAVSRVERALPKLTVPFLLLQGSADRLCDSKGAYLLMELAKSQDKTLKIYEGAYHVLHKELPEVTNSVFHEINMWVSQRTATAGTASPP
T3 sequence (O35678 whole entry): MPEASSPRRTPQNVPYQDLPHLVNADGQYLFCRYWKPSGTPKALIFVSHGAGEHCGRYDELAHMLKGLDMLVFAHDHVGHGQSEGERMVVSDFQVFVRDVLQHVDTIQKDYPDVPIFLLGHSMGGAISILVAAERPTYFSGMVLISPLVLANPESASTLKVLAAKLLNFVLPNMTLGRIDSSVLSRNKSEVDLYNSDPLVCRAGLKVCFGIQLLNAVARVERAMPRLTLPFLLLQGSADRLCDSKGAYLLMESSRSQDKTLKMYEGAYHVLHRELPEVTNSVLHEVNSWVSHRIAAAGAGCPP
T2 sequence (Q8R2Y0 whole entry): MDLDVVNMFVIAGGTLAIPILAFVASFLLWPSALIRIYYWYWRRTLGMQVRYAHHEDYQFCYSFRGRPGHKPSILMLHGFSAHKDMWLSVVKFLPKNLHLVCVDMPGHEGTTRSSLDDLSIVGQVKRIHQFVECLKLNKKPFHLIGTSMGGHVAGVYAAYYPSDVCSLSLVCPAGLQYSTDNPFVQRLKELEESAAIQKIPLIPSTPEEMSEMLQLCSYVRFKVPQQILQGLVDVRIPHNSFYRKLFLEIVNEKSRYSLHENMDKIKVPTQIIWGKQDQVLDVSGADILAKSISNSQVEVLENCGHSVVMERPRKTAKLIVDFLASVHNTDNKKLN
T1 sequence (O08914 whole entry): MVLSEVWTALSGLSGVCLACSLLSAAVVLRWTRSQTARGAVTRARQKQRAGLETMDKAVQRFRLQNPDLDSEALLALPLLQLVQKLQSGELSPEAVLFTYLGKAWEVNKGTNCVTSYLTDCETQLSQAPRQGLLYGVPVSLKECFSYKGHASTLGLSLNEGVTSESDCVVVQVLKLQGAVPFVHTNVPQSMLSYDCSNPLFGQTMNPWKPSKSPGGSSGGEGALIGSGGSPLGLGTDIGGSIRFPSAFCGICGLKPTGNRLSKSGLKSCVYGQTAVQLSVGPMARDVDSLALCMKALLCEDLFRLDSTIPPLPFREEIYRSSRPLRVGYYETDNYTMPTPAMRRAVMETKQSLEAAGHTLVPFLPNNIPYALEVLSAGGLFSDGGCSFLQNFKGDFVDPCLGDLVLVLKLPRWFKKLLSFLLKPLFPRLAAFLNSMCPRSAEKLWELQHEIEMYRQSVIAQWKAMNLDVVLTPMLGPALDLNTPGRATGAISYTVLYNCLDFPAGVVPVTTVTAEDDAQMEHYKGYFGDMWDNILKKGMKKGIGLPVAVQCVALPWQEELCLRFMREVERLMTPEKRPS

SMILES | IC50 (MAGL [1]; [8]) | inhibition at 1 µM (FAAH [2]; 1 μM, mouse proteome) | inhibition at 1 µM (ABHD6 [3]; mouse proteome) | inhibition at 1 µM (MAGL [4]; 1 μM, mouse proteome) | also measured
COC(=O)C1CCN(c2cc(C(F)(F)F)ccc2CN2CC3(CCN(C(=O)OC(C(F)(F)F)C(F)(F)F)CC3)CC2(C)C)CC1 [Example 53, 1,1,1,3,3,3-Hexafluoropropan-2-yl 2-(2-(4-(methoxycarbonyl)piperidin-1-yl)-4-(trifluoromethyl)benzyl)-3,3-dimethyl-2,8-diazaspiro[4.5]decane-8-carboxylate] | < 100 nM | < 25% | < 25% | > 75% | IC50 (FAAH [2]; mouse proteome): > 1000 nM; IC50 (ABHD6 [3]; mouse proteome): > 1000 nM; IC50 (MAGL [4]; mouse proteome): 100 to 1000 nM
NC(=O)c1cc(CN2CCCC23CCN(C(=O)OC(C(F)(F)F)C(F)(F)F)CC3)ccc1C(F)(F)F [Example 178, 1,1,1,3,3,3-hexafluoropropan-2-yl 1-(3-carbamoyl-4-(trifluoromethyl)benzyl)-1,8-diazaspiro[4.5]decane-8-carboxylate] | < 100 nM | < 25% | 25 to 75% | > 75% | IC50 (FAAH [2]; mouse proteome): > 1000 nM; IC50 (ABHD6 [3]; mouse proteome): > 1000 nM; IC50 (MAGL [4]; mouse proteome): < 100 nM
O=C(OC(C(F)(F)F)C(F)(F)F)N1CCC2(CCCN2Cc2ccc(C(F)(F)F)c(Cl)c2)CC1 [Example 183, 1,1,1,3,3,3-Hexafluoropropan-2-yl 1-(3-chloro-4-(trifluoromethyl)benzyl)-1,8-diazaspiro[4.5]decane-8-carboxylate] |  | < 25% | 25 to 75% | > 75% | IC50 (FAAH [2]; mouse proteome): > 1000 nM; MAGL % Inh 5 mg/kg (mouse) (MAGL [5]): ### (### is ≥75%); IC50 (ABHD6 [3]; mouse proteome): > 1000 nM; IC50 (MAGL [4]; mouse proteome): < 100 nM; FAAH % Inh 5 mg/kg (mouse) (FAAH [6]): # (# is <25%); ABHD6 % Inh 5 mg/kg (mouse) (ABHD6 [7]): # (# is <25%)
O=C(OC(C(F)(F)F)C(F)(F)F)N1CCC2(CCCN2Cc2ccc(Cl)c(C(F)(F)F)c2)CC1 [Example 184, 1,1,1,3,3,3-Hexafluoropropan-2-yl 1-(4-chloro-3-(trifluoromethyl)benzyl)-1,8-diazaspiro[4.5]decane-8-carboxylate] |  | < 25% | < 25% | > 75% | IC50 (FAAH [2]; mouse proteome): > 1000 nM; MAGL % Inh 5 mg/kg (mouse) (MAGL [5]): ### (### is ≥75%); IC50 (ABHD6 [3]; mouse proteome): > 1000 nM; IC50 (MAGL [4]; mouse proteome): < 100 nM; FAAH % Inh 5 mg/kg (mouse) (FAAH [6]): # (# is <25%); ABHD6 % Inh 5 mg/kg (mouse) (ABHD6 [7]): # (# is <25%)
CN1CCN(c2c(Cl)cccc2CN2CC3(CCN(C(=O)OC(C(F)(F)F)C(F)(F)F)CC3)CC2(C)C)CC1 [Example 189, 1,1,1,3,3,3-Hexafluoropropan-2-yl 2-(3-chloro-2-(4-methylpiperazin-1-yl)benzyl)-3,3-dimethyl-2,8-diazaspiro[4.5]decane-8-carboxylate] |  | < 25% | 25 to 75% | > 75% | IC50 (FAAH [2]; mouse proteome): > 1000 nM; MAGL % Inh 5 mg/kg (mouse) (MAGL [5]): ## (## is equal to or greater than 25% but less than 75%); IC50 (ABHD6 [3]; mouse proteome): 100 to 1000 nM; IC50 (MAGL [4]; mouse proteome): < 100 nM; FAAH % Inh 5 mg/kg (mouse) (FAAH [6]): # (# is <25%); ABHD6 % Inh 5 mg/kg (mouse) (ABHD6 [7]): # (# is <25%)
C#Cc1ccc(CN2CCCC23CCN(C(=O)OC(C(F)(F)F)C(F)(F)F)CC3)c(N2CCC(C(=O)O)CC2)c1 [Example 198, 1-{5-Ethynyl-2-[(8-{[(1,1,1,3,3,3-hexafluoropropan-2-yl)oxy]carbonyl}-1,8-diazaspiro[4.5]decan-1-yl)methyl]phenyl}piperidine-4-carboxylic acid] | < 100 nM | < 25% | < 25% | > 75% | 
O=C(O)C1CCN(c2cc(C(F)(F)F)ccc2CN2CCC3(CCN(C(=O)OC(C(F)(F)F)C(F)(F)F)CC3)C2)C1 (stereo not shown) [Example 201] | < 100 nM | < 25% | ≥ 75% | > 75% | 
O=C(O)C1CCN(c2cc(CN3CCC4(CCN(C(=O)OC(C(F)(F)F)C(F)(F)F)CC4)C3)cc(C(F)(F)F)c2)C1 (stereo not shown) [Example 202] | < 100 nM | < 25% | ≥ 75% | > 75% | 
O=C(O)C1CCN(c2cc(CN3CCCC34CCN(C(=O)OC(C(F)(F)F)C(F)(F)F)CC4)cc(C(F)(F)F)c2)C1 (stereo not shown) [Example 203] | < 100 nM | < 25% | < 25% | > 75% | 
O=C(O)C1CN(c2cc(CN3CCCC34CCN(C(=O)OC(C(F)(F)F)C(F)(F)F)CC4)cc(C(F)(F)F)c2)CCO1 (stereo not shown) [Example 204] | < 100 nM | < 25% | < 25% | > 75% | 
O=C(OC(C(F)(F)F)C(F)(F)F)N1CCC2(CCCN2Cc2cc(-c3nnn[nH]3)cc(C(F)(F)F)c2)CC1 [Example 205] | < 100 nM | < 25% | 25 to 75% | > 75% | 
O=C(O)c1cc(CN2CCCC23CCN(C(=O)OC(C(F)(F)F)C(F)(F)F)CC3)cc(C(F)(F)F)c1 [Example 206] | < 100 nM | < 25% | 25 to 75% | > 75% | 
O=C(O)C1CN(c2cc(C(F)(F)F)ccc2CN2CCC3(CCN(C(=O)OC(C(F)(F)F)C(F)(F)F)CC3)C2)CCO1 (stereo not shown) [Example 209] | < 100 nM | < 25% | 25 to 75% | > 75% | 
O=C(O)[C@H]1CCCN(c2cc(C(F)(F)F)ccc2CN2CCC3(CCN(C(=O)OC(C(F)(F)F)C(F)(F)F)CC3)C2)C1 [Example 215] | < 100 nM | < 25% | ≥ 75% | > 75% | 
CC1(C(=O)O)CCN(c2cc(C(F)(F)F)ccc2CN2CCC3(CCN(C(=O)OC(C(F)(F)F)C(F)(F)F)CC3)C2)C1 (stereo not shown) [Example 219] | < 100 nM | < 25% | ≥ 75% | > 75% | 
O=C(O)[C@@H]1CCCN(c2cc(CN3CCC4(CCN(C(=O)OC(C(F)(F)F)C(F)(F)F)CC4)C3)cc(C(F)(F)F)c2)C1 [Example 222] |  |  |  |  | IC50 (MAGL [1]; human): < 100 nM; FAAH % Inh 1 μM (mouse) (FAAH [2]; 1 μM, mouse): # (# is <25%); inhibition at 1 µM (ABHD6 [3]; mouse): < 25%; MAGL % Inh 1 μM (mouse) (MAGL [4]; 1 μM, mouse): ### (### is ≥75%)
CC1(C(=O)O)CCCN(c2cc(CN3CCC4(CCN(C(=O)OC(C(F)(F)F)C(F)(F)F)CC4)C3)cc(C(F)(F)F)c2)C1 (stereo not shown) [Example 223] |  |  |  |  | IC50 (MAGL [1]; human): < 100 nM; inhibition at 1 µM (FAAH [2]; 1 μM, mouse): < 25%; inhibition at 1 µM (ABHD6 [3]; mouse): < 25%; inhibition at 1 µM (MAGL [4]; 1 μM, mouse): > 75%
O=C(O)C1CCCCN1c1cc(CN2CCC3(CCN(C(=O)OC(C(F)(F)F)C(F)(F)F)CC3)C2)cc(C(F)(F)F)c1 (stereo not shown) [Example 225] |  |  |  |  | IC50 (MAGL [1]; human): < 100 nM; inhibition at 1 µM (FAAH [2]; 1 μM, mouse): < 25%; inhibition at 1 µM (ABHD6 [3]; mouse): < 25%; inhibition at 1 µM (MAGL [4]; 1 μM, mouse): > 75%
O=C(O)C1CCN(c2ccc(CN3CCC4(CCN(C(=O)OC(C(F)(F)F)C(F)(F)F)CC4)C3)cc2C(F)(F)F)CC1 [Example 228] |  |  |  |  | IC50 (MAGL [1]; human): < 100 nM; inhibition at 1 µM (FAAH [2]; 1 μM, mouse): < 25%; inhibition at 1 µM (ABHD6 [3]; mouse): ≥ 75%; inhibition at 1 µM (MAGL [4]; 1 μM, mouse): > 75%
